From patent publication US20120129842A1, “BISTHIAZOLE INHIBITORS OF PRO-MATRIX METALLOPROTEINASE ACTIVATION” (priority 2010, published 2012)
Structures can show the parent of a compound that is named as a salt.

Tests used:
[1] = biological target: proMMP13(1-268) (SEQ ID NO:7) (Homo sapiens, UniProt P45452); test: ThermoFluor binding assay with proMMP13(1-268); parameters: 6xHis (C); made in house; conditions: pH 7.0
In short: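 Thermal shift binding with 3.5 μM protein and 25 μM 1,8-ANS in 50 mM HEPES pH 7.0, 100 mM NaCl, 0.001% Tween-20, 2.5 mM MgCl2, 300 μM CaCl2. Samples were heated 40 to 90 °C at 1 °C/min, fluorescence read at 500 nm. Tm shifts across an 11-point DMSO dilution series were fitted with DSC-derived thermodynamic parameters.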

[2] = biological target: T1, proMMP9(20-445;ΔFnII) (SEQ ID NO:6) (Homo sapiens, UniProt P14780, DEL216-390); test: ThermoFluor binding assay with proMMP9(20-445;ΔFnII); conditions: pH 7.0
T1 construct: start methionine (N); made in house; host or cells: E. coli BL21(DE3) RIL
T1 sequence (P14780 with tags, fused parts or gaps DEL216-390): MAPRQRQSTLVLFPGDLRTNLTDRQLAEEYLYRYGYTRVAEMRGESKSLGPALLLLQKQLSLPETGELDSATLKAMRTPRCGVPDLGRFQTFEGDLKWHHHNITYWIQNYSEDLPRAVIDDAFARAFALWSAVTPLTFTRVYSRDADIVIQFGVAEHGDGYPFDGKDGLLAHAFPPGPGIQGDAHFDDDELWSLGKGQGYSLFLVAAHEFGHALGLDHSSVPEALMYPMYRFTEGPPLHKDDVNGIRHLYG
In short: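 proMMP9(20-445;ΔFnII) at 2.8 μM with 50 μM 1,8-ANS in 50 mM HEPES pH 7.0, 100 mM NaCl, 0.001% Tween-20, 2.5 mM MgCl2, 300 μM CaCl2; compounds serially diluted in DMSO. Heated 40–90 °C at 1 °C/min, fluorescence read at 500±25 nm. Tm fit by standard equations; binding fit using DSC/TF-derived thermodynamic parameters.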

[3] = biological target: T2, full-length proMMP9(1-707) (SEQ ID NO:1) (Homo sapiens, UniProt P14780, R574P); test: proMMP9/MMP3 P126 Activation Assay; format: biochemical; conditions: 20 nM proMMP9, 20 nM MMP3, 80 min 37° C.
T2 construct: made in house; host or cells: HEK293 (proMMP9, secreted); E. coli (MMP3)
Description: The reaction volume was 50 μL. […] Reactivity of residual MMP3 towards P-126 substrate was minimal under these conditions.

[4] = biological target: T3, proMMP9(67-444;ΔFnII) (SEQ ID NO:5) (Homo sapiens, UniProt P14780, DEL216-390); test: ThermoFluor binding assay with proMMP9(67-444;ΔFnII); conditions: pH 7.0
T3 construct: start methionine (N); made in house; host or cells: E. coli BL21(DE3) RIL
T3 sequence (P14780 with tags, fused parts or gaps DEL216-390): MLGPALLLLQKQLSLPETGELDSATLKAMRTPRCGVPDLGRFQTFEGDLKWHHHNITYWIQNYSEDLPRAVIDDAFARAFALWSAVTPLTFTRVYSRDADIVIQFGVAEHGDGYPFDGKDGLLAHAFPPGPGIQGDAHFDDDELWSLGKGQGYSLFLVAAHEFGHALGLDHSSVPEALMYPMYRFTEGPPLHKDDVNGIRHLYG
In short: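 Thermal shift binding with 3.5 μM proMMP9(67-444;ΔFnII) and 50 μM 1,8-ANS in 50 mM HEPES pH 7.0, 100 mM NaCl, 2.5 mM MgCl2, 300 μM CaCl2, 0.001% Tween-20, with serially diluted compound. Heated 40 to 90° C at 1° C/min; fluorescence-derived Tm fitted using DSC/ThermoFluor thermodynamic parameters.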

T2 sequence (P14780 20-707 R574P): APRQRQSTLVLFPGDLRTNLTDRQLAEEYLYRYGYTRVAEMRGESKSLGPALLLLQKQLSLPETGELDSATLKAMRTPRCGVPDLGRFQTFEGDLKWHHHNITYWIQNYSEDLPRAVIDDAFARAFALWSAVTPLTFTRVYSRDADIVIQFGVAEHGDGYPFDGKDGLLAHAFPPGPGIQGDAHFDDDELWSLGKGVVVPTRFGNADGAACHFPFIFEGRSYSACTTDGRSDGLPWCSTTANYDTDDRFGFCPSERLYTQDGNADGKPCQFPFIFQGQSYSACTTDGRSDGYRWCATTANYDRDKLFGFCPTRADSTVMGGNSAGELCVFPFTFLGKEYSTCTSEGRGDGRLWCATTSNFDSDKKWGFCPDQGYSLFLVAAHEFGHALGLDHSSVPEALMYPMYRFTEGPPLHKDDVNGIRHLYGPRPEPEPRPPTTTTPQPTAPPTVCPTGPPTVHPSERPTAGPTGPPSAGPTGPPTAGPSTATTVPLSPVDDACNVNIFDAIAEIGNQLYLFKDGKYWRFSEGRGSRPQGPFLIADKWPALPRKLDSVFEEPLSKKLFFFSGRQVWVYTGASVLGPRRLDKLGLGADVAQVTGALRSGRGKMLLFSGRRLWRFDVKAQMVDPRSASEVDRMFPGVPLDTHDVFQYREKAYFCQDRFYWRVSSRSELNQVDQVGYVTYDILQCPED

Structure (SMILES)	Kd [1] [µM]	Kd [2] [µM]	IC50 [3] [µM]	Kd [4] [µM]
Cc1cc2cccc(Nc3nc(-c4sc(C)nc4C)cs3)c2o1 [Example 29, (2′,4′-Dimethyl-[4,5′]bithiazolyl-2-yl)-(2-methyl-benzofuran-7-yl)-amine]	> 95	61	3.8	> 95
Cc1nc(C(=O)N2CCN(c3ccc(C(F)(F)F)cn3)CC2)sc1-c1csc(Nc2cc(C(N)=O)ccc2OC(C)C)n1 [Example 109, 4-Isopropoxy-3-{4′-methyl-2′-[4-(5-trifluoromethyl-pyridin-2-yl)-piperazine-1-carbonyl]-[4,5′]bithiazolyl-2-ylamino}-benzamide.TFA]	> 95	3.8	5.7	> 95
COc1ccc(-c2nccs2)cc1Nc1nc(-c2sc(C)nc2C)cs1 [Example 142, (2′,4′-Dimethyl-[4,5′]bithiazolyl-2-yl)-(2-methoxy-5-thiazol-2-yl-phenyl)-amine.TFA]	6.7	> 95	11	58
Cc1nc(C(=O)N2CCCN(C(C)C)CC2)sc1-c1csc(Nc2cc(C(N)=O)ccc2OC(C)C)n1 [Example 112, 4-Isopropoxy-3-[2′-(4-isopropyl-[1,4]diazepane-1-carbonyl)-4′-methyl-[4,5]bithiazolyl-2-ylamino]-benzamide.TFA]	> 57	1.4	0.52	2.2
CCCOc1ccc(C(N)=O)cc1Nc1nc(-c2sc(C)nc2C)cs1 [Example 13, 3-(2′,4′-Dimethyl-[4,5′]bithiazolyl-2-ylamino)-4-propoxy-benzamide]	7	0.83	6.1	5.1

The next compounds have a lower Kd [1] than those just listed; values first:

Kd [1] [µM]	Kd [2] [µM]	IC50 [3] [µM]	Kd [4] [µM]	Structure (SMILES)
6.1	4.1	3	2.5	CCS(=O)(=O)c1ccc(OC)c(Nc2nc(-c3sc(NC(C)=O)nc3C)cs2)c1 [Example 49, N-[2-(5-Ethanesulfonyl-2-methoxy-phenylamino)-4′-methyl-[4,5]bithiazolyl-2′-yl]-acetamide.TFA]
6.1	0.65	0.67	3.7	Cc1nc(CN2CCOCC2)sc1-c1csc(Nc2cc(C(N)=O)ccc2OC(C)C)n1 [Example 124, 4-Isopropoxy-3-(4′-methyl-2′-morpholin-4-ylmethyl-[4,5′]bithiazolyl-2-ylamino)-benzamide.TFA]
5.2	0.5	1.3	2.7	Cc1nc(CN2CCCCC2)sc1-c1csc(Nc2cc(C(N)=O)ccc2OC(C)C)n1 [Example 128, 4-Isopropoxy-3-(4′-methyl-2′-piperidin-1-ylmethyl-[4,5′]bithiazolyl-2-ylamino)-benzamide.TFA]
4.3	> 95	~12	15	COc1ccc(-c2cccnc2)cc1Nc1nc(-c2sc(C)nc2C)cs1 [Example 141, (2′,4′-Dimethyl-[4,5′]bithiazolyl-2-yl)-(2-methoxy-5-pyridin-3-yl-phenyl)-amine]
0.95	0.1	0.38	0.65	Cc1nc(N(C)C)sc1-c1csc(Nc2cc(C(N)=O)ccc2OC(C)C)n1 [Example 88, 3-(2′-Dimethylamino-4′-methyl-[4,5′]bithiazolyl-2-ylamino)-4-isopropoxy-benzamide.TFA]
0.16	0.3	1.5	0.67	Cc1nc(C)c(-c2nc(Nc3cc(S(N)(=O)=O)ccc3OC(C)C)sc2F)s1 [Example 62, 3-(5-Fluoro-2′,4′-dimethyl-[4,5′]bithiazolyl-2-ylamino)-4-isopropoxy-benzenesulfonamide.TFA]
0.07	0.058	0.35	0.11	Cc1nc(N)sc1-c1csc(Nc2cc(S(N)(=O)=O)ccc2OC(C)C)n1 [Example 60, 3-(2′-Amino-4′-methyl-[4,5′]bithiazolyl-2-ylamino)-4-isopropoxy-benzenesulfonamide.TFA]
